This passage reports viability, T/C and IC50 results from PubChem BioAssay AID1963860 (Molecular Pharmacology Branch, DTP, NCI, 2024).

pIC50: −log10 of the molar value.

The experiment has as its system CN0375-F725-PDC KRAS spheroid viability. In words: Anticancer human tumor CN0375-F725-PDC patient-derived colon carcinoma cell line growth inhibition [KRAS2]. To be noted: spheroids with HUVEC and MSC; for viability, T/C: stronger effect = lower value. The text has this:
Multicellular complex tumor spheroid response to RAS pathway inhibitors in combination with a targeted agents in patient-derived cell lines with oncogenic KRAS variants from multiple cancer types
A high-throughput screen of multi-cell type tumor spheroids was designed to identify active combinations of targeted small molecules and KRAS pathway inhibitors. Complex spheroids include a stromal component modeled by human endothelial cells (HUVEC) and fibroblasts modeled by human mesenchymal stem cells (MSCs). The concentration ranges selected for each drug and investigational agent were based upon clinically achievable concentrations if the clinical Cmax of the agent was known.
Compounds. The drugs and investigational agents: BI-3406 (NSC825286), BAY-293 (NSC824723), batoprotafib (TNO155; NSC825523), sotorasib (AMG 510; NSC818433), MRTX1257 (NSC819558), elimusertib (BAY 1895344; NSC800525), molibresib (GSK525762; NSC774829), temuterkib (LY3214996; NSC803410), venetoclax (NSC766270), alisertib (NSC759677), olaparib (NSC753686), talazoparib (NSC767125), erdafitinib (NSC781556), ipatasertib (NSC767898), cabozantinib (NSC761068), nintedanib (NSC756659), abemaciclib (NSC768073), docetaxel (NSC628503), trametinib (NSC758246), and sapanisertib (NSC764658) were obtained from the National Cancer Institute (NCI) Developmental Therapeutics Program Chemical Repository. The FDA-approved anticancer drug set is available from the Developmental Therapeutics Program. […] The stock solutions were prepared in dimethyl sulfoxide (DMSO, Sigma-Aldrich, St. Louis, MO, cat. D2650) at 800-fold the tested concentration and stored at -70 degrees C prior to their use. All drugs and investigational agents were tested over a range starting from a high concentration at or near the clinical Cmax and decreasing in half-log increments. If the clinical Cmax for an agent had not been determined, the highest concentration tested was 10 microM.
Cell Culture. All cells were maintained in an incubator at 37 degrees C and 5% CO2 with 95% humidity. The PDC lines were cultured according to standard operating procedures established by the NCI PDMR (https://pdmr.cancer.gov/sops/default.htm). Briefly, all PDCs were thawed and cultured in Matrigel-coated flasks prepared with a working solution of 1X Ham's F-12 nutrient mix, without supplementation (Invitrogen, Waltham, MA, cat. 11765054), 100 U/mL penicillin-streptomycin (Invitrogen, cat. 15140122), and 2.5% Matrigel (Corning Inc., Corning, NY, cat. 354248) for the first three passages. All PDCs were cultured in complete DMEM/F-12 media containing advanced DMEM/F-12 (Invitrogen, cat. 12634028), 4.9% defined fetal bovine serum, heat inactivated (HyClone Laboratories Inc., Logan, UT, cat. SH30070.03HI), 389 ng/mL hydrocortisone (Sigma-Aldrich, cat. H4001), 9.7 ng/mL human EGF recombinant protein (Invitrogen, cat. PHG0313), 23.4 microg/mL adenine (Sigma-Aldrich, cat. A2786), 97.3 U/mL penicillin-streptomycin (Invitrogen, cat. 15140122), 1.9 mM L-glutamine (Invitrogen, cat. 25030081), and 9.7 microM Y-27632 dihydrochloride (Tocris Bioscience, Bristol, United Kingdom, cat. 1254). The PDCs were cultured in complete DMEM/F12 media without 9.7 microM Y-27632 dihydrochloride for at least two passages prior to the screen. The established cell line HOP-62 was cultured in RPMI 1640 medium, HEPES (Invitrogen, cat. 22400105) with 10% defined fetal bovine serum (HyClone Laboratories Inc., cat. SH30070.03) and 2 mM L-glutamine (Invitrogen, cat. 25030081). The pooled donor HUVEC were cultured in endothelial cell growth medium 2 (PromoCell, Heidelberg, Germany, cat. C-22011) and the hMSC were cultured in mesenchymal stem cell growth medium 2 (PromoCell, cat. C-28009). For all experiments, HUVEC and hMSC were used at passages </=5, while the malignant cell lines were used at passages </=15. […]

[1] abbreviates: compound alone, run of 08/26/2021.
[2] abbreviates: compound alone, run of 09/02/2021.
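Further: spheroids exposed to agents for 7 days.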

One may read the viability, T/C as the result in the treated group divided by that in the control group, in per cent. In general, pIC50 refers to the IC50 on a negative log10 scale, so that one unit is a factor of ten. In the case of `C=CC(=O)N1CCN(c2nc(=O)n(-c3c(C)ccnc3C(C)C)c3nc(-c4c(O)cccc4F)c(F)cc23)C(C)C1` (stereo not drawn), the viability, T/C is, setting by setting: (compound 0.1 µM) 103% [middle of 17 runs]; (compound 0.316 µM) 103% [middle of 17 runs]; (compound 1 µM) 103% [middle of 17 runs]; (compound 3.16 µM) 104% [middle of 17 runs]; (compound 10 µM) 100% [middle of 17 runs]. The pIC50 by setting is: (compound alone, run of 08/19/2021) less than 5.00; under setting [1], less than 5.00; under setting [2], less than 5.00.
On to `CC(C)NCC(C(=O)N1CCN(c2ncnc3c2C(C)CC3O)CC1)c1ccc(Cl)cc1` (stereo not drawn), for which the viability, T/C was 103% [middle of 5 runs] (compound 0.0316 µM); 102% [middle of 5 runs] (compound 0.1 µM); 96.5% [middle of 5 runs] (compound 0.316 µM); 93.9% [middle of 5 runs] (compound 1 µM); 91.8% [middle of 5 runs] (compound 3.16 µM); 76.8% [middle of 5 runs] (compound 10 µM). Besides, the pIC50 (curve of compound) is less than 5.00.
As a reminder, the IC50 is the concentration at which inhibition is half-maximal. With `CNCc1ccccc1-c1csc(C(C)Nc2nc(C)nc3cc(OC)c(OC)cc23)c1` (stereo not drawn), the viability, T/C (compound 0.1 µM) was 98.1% [middle of 17 runs]; the viability, T/C (compound 0.316 µM) was 92.8% [middle of 17 runs]; the viability, T/C (compound 10 µM) is 0.33% [middle of 15 runs]. The 50% inhibitory concentration (IC50) under setting [1] is 988 nM [middle of 5 runs] and the IC50 under setting [2] is 1.33 µM [middle of 6 runs].
Turning to `COC(=O)c1ccc2c(C(=Nc3ccc(N(C)C(=O)CN4CCN(C)CC4)cc3)c3ccccc3)c(O)[nH]c2c1`, the viability, T/C reads like this: (compound 0.0316 µM) 103% [middle of 5 runs]; (compound 0.1 µM) 96.6% [middle of 5 runs]; (compound 0.316 µM) 93.9% [middle of 5 runs]; (compound 1 µM) 91.9% [middle of 5 runs]; (compound 10 µM) 0.42% [middle of 5 runs]. The IC50 (curve of compound) is 3.14 µM [middle of 5 runs].
In the case of `COc1cc(OC)cc(N(CCNC(C)C)c2ccc3ncc(-c4cnn(C)c4)nc3c2)c1`, the viability, T/C was 94.3% [middle of 5 runs] (compound 0.0316 µM); 91.7% [middle of 5 runs] (compound 0.1 µM); 92.1% [middle of 5 runs] (compound 0.316 µM); 103% [middle of 5 runs] (compound 1 µM); 82.9% [middle of 5 runs] (compound 3.16 µM); 2.52% [middle of 5 runs] (compound 10 µM). Moreover, the IC50 (curve of compound) is 5.06 µM [middle of 4 runs].
As to `COc1cc2nc(C)nc(NC(C)c3cc(N)cc(C(F)(F)F)c3)c2cc1OC1CCOC1` (stereo not drawn), the viability, T/C was 96.2% [middle of 17 runs] (compound 0.1 µM), 92.3% [middle of 17 runs] (compound 0.316 µM), 90.5% [middle of 17 runs] (compound 1 µM) and 83.4% [middle of 17 runs] (compound 3.16 µM). Further, the IC50 by setting is: under setting [1], 5.77 µM [middle of 4 runs]; under setting [2], 5.43 µM [middle of 6 runs].
For the compound `COc1cc2nccc(Oc3ccc(NC(=O)C4(C(=O)Nc5ccc(F)cc5)CC4)cc3)c2cc1OC`, the viability, T/C was 102% [middle of 5 runs] (compound 0.0316 µM); 97.5% [middle of 5 runs] (compound 0.1 µM); 92.5% [middle of 5 runs] (compound 0.316 µM); 88.5% [middle of 5 runs] (compound 1 µM); 57.1% [middle of 5 runs] (compound 3.16 µM); 67.7% [middle of 5 runs] (compound 10 µM). The pIC50 (curve of compound) is less than 5.00.
Regarding `O=C(c1cc(Cc2n[nH]c(=O)c3ccccc23)ccc1F)N1CCN(C(=O)C2CC2)CC1`, the viability, T/C by setting is: (compound 0.0316 µM) 107% [middle of 5 runs]; (compound 0.1 µM) 106% [middle of 5 runs]; (compound 0.316 µM) 102% [middle of 5 runs]; (compound 1 µM) 107% [middle of 5 runs]; (compound 3.16 µM) 105% [middle of 5 runs]; (compound 10 µM) 96.7% [middle of 5 runs]. In addition, the pIC50 (curve of compound) was less than 5.00.
